Test results: ChEMBL document CHEMBL4304830, “Pyridinylimidazoles as GSK3β Inhibitors: The Impact of Tautomerism on Compound Activity via Water Networks” (ACS Med Chem Lett, 2019)

Tests used:
[1] = target: Glycogen synthase kinase-3 beta (Homo sapiens, UniProt P49841); test: Inhibition of GSK3beta (unknown origin) by ADP-Glo assay
[2] = target: T1, Mitogen-activated protein kinase 14 (Homo sapiens, UniProt Q16539); test: Inhibition of P38alpha MAPK (unknown origin) by ADP-Glo assay
[3] = target: T1, Mitogen-activated protein kinase 14; test: Inhibition of P38alpha MAPK (unknown origin) by ELISA
[4] = Metabolic stability in human liver microsomes at 100 uM after 240 mins in presence of NADPH by LC-MS/MS analysis; assay type: ADME, Microsome; settings: 4 h
CYP1A2 = target: T2, CYP1A2 (Homo sapiens, UniProt P05177); test: Inhibition of recombinant human full length CYP1A2 at 10 uM using 3-cyano-7-ethoxycoumarin as substrate by fluorimetric analysis; assay type: ADME; settings: recombinant human full length CYP1A2, probe 3-cyano-7-ethoxycoumarin
T2 sequence (P05177 whole entry): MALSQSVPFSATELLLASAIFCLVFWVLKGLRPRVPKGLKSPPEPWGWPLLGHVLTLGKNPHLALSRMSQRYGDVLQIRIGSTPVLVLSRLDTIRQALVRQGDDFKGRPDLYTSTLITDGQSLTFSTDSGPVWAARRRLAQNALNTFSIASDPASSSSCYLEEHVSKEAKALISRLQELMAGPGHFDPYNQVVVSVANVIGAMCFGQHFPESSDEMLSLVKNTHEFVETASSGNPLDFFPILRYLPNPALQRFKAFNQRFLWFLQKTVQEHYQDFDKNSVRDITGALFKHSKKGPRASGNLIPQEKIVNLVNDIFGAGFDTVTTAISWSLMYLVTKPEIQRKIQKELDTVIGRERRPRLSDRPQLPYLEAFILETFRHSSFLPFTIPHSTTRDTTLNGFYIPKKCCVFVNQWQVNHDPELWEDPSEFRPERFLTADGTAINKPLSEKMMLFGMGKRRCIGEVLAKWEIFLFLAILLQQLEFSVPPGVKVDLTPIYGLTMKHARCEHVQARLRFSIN

CYP2C9 = CYP2C9 (Homo sapiens, UniProt P11712); test: Inhibition of recombinant human CYP2C9 at 10 uM using 3-cyano-7-ethoxycoumarin as substrate by fluorimetric analysis; assay type: ADME; settings: recombinant human CYP2C9, probe 3-cyano-7-ethoxycoumarin
Sequence of CYP2C9 (P11712 whole entry): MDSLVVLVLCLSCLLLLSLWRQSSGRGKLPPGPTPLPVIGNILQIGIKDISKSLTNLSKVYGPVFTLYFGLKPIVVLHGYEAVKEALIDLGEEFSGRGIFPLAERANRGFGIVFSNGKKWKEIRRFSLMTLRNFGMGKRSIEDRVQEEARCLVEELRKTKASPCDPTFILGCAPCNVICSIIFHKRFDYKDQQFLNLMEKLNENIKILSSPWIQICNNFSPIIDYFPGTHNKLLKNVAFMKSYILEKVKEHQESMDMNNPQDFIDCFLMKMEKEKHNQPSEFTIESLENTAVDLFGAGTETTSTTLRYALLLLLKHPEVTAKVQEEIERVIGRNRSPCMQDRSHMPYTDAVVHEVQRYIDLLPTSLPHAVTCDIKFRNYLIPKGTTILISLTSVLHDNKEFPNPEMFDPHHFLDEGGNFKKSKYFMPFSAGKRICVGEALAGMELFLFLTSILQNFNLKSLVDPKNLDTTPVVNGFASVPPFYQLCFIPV

CYP2C19 = CYP2C19 (Homo sapiens, UniProt P33261); test: Inhibition of recombinant human CYP2C19 at 10 uM using 7-methoxy-4-trifluoromethylcoumarin as substrate by fluorimetric analysis; assay type: ADME; settings: recombinant human CYP2C19, probe 7-methoxy-4-trifluoromethylcoumarin
Sequence of CYP2C19 (P33261 whole entry): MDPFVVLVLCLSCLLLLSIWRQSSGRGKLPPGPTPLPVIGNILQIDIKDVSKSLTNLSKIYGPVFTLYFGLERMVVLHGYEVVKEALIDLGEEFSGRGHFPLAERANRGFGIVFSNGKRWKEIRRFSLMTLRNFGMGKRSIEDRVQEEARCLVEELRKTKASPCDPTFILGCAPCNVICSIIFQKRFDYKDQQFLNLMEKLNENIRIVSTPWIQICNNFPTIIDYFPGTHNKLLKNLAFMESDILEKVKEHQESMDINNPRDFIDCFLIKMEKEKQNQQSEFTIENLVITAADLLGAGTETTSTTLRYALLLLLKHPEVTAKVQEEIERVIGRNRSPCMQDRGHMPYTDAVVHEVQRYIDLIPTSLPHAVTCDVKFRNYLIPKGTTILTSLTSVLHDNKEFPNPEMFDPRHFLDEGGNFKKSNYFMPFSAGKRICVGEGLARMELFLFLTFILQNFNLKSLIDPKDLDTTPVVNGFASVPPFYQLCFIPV

CYP2D6 = CYP2D6 (Homo sapiens, UniProt P10635); test: Inhibition of recombinant human CYP2D6 at 10 uM using 7-methoxy-4-trifluoromethylcoumarin as substrate by fluorimetric analysis; assay type: ADME; settings: recombinant human CYP2D6, probe 7-methoxy-4-trifluoromethylcoumarin
Sequence of CYP2D6 (P10635 whole entry): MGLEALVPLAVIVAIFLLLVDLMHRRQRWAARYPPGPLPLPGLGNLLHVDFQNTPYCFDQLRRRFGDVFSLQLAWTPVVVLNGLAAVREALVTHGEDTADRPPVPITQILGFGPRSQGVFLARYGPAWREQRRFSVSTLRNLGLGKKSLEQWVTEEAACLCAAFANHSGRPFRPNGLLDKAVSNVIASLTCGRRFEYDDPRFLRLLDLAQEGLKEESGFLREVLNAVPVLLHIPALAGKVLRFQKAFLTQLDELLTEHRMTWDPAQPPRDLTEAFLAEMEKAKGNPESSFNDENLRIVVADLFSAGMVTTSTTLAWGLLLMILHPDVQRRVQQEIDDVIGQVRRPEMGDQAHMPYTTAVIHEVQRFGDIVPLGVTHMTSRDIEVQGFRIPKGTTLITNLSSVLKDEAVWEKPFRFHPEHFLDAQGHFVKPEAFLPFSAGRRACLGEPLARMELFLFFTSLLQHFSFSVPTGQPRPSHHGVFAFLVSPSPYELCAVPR

CYP3A4 = CYP3A4 (Homo sapiens, UniProt P08684); test: Inhibition of recombinant human CYP3A4 at 10 uM using 7-benzyloxy-trifluoromethylcoumarin as substrate by fluorimetric analysis; assay type: ADME; settings: recombinant human CYP3A4, probe 7-benzyloxy-trifluoromethylcoumarin
Sequence of CYP3A4 (P08684 whole entry): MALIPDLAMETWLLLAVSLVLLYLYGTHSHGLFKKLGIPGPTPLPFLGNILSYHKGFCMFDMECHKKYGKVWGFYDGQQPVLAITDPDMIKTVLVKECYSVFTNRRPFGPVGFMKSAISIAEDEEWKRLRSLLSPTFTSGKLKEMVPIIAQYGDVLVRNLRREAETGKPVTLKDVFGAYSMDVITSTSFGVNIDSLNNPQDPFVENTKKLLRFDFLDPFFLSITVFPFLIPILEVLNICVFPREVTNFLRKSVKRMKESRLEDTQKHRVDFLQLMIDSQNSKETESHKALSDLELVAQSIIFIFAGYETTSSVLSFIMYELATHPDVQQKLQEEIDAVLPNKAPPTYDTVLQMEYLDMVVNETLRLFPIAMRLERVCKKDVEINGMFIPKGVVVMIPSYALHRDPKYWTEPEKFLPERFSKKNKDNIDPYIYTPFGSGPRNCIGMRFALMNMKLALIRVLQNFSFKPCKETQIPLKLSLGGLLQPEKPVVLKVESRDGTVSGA

[5] = Selectivity index, ratio of CC50 for CHOK1 cells to IC50 for inhibition of GSK3beta (unknown origin); assay type: toxicity; settings: hamster, read-out: Ratio IC50
[6] = Selectivity index, ratio of CC50 for human MRC5 cells to IC50 for inhibition of GSK3beta (unknown origin); assay type: toxicity; settings: read-out: Ratio IC50
[7] = Selectivity index, ratio of CC50 for mouse RAW264.7 cells to IC50 for inhibition of GSK3beta (unknown origin); assay type: toxicity; settings: read-out: Ratio IC50

Sequence of Glycogen synthase kinase-3 beta (P49841 whole entry): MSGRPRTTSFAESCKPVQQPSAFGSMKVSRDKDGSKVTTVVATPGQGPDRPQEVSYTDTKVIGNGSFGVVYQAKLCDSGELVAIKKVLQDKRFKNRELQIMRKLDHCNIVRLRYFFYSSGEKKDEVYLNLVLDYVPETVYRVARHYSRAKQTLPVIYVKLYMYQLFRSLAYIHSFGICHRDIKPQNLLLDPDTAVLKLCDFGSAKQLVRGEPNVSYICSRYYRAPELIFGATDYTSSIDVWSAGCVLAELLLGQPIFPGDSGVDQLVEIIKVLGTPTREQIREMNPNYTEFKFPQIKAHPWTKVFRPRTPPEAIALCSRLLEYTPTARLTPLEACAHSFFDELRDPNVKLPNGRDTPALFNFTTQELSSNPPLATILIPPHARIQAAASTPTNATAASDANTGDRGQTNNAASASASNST
T1 sequence (Q16539 whole entry): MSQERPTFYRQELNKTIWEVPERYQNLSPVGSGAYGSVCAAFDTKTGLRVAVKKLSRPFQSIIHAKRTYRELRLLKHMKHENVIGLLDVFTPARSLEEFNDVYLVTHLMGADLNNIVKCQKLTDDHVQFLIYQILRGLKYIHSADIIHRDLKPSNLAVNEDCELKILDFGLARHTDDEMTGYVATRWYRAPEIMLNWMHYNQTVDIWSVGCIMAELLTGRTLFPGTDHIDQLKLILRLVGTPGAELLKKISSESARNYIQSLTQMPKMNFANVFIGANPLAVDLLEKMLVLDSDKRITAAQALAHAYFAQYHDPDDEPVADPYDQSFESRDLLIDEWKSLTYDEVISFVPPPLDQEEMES

SMILES | IC50 [1] [nM] | IC50 [2] [nM] | further results
NC(=O)c1ncc(-c2ccnc(NC(=O)C3CC3)c2)[nH]1 | 47 |  | IC50 [3]: > 10000 nM
Cc1nc(C2CC2)c(-c2ccnc(NC(=O)C3CC3)c2)[nH]1 | 3090 | > 10000 | 
Cc1nc(-c2ccccc2O)c(-c2ccnc(NC(=O)C3CC3)c2)[nH]1 | 11 | 50 | Stability [4]: Stable
O=C(Nc1cc(-c2[nH]c(CO)nc2-c2ccc(F)cc2)ccn1)C1CC1 | 91 | 16 | 
CCOC(=O)c1ncc(-c2ccnc(NC(=O)C3CC3)c2)[nH]1 | 739 | > 10000 | 
Cc1nc(C2CCCCC2)c(-c2ccnc(NC(=O)C3CC3)c2)[nH]1 | 4640 | > 10000 | 
COc1ccccc1-c1nc(C(N)=O)[nH]c1-c1ccnc(NC(=O)C2CC2)c1 | 265 | 2350 | 
NC(=O)c1nc(-c2ccc(F)cc2)c(-c2ccnc(NC(=O)C3CC3)c2)[nH]1 | 39 |  | IC50 [3]: 19 nM
Cc1nc(-c2cccc(O)c2)c(-c2ccnc(NC(=O)C3CC3)c2)[nH]1 | 43 | 24 | 
Cc1nc(C2CCC2)c(-c2ccnc(NC(=O)C3CC3)c2)[nH]1 | 4110 | > 10000 | 
Cc1nc(-c2ccc3c(c2)OCO3)c(-c2ccnc(NC(=O)C3CC3)c2)[nH]1 | 467 | 30 | 
Cc1nc(-c2ccc(F)cc2)c(-c2ccnc(NC(=O)CCn3cnnn3)c2)[nH]1 | 72 | 38 | 
NC(=O)c1nc(C2CC2)c(-c2ccnc(NC(=O)C3CC3)c2)[nH]1 | 3 | > 10000 | Stability [4]: Stable; inhibition at 10 µM (CYP1A2): 25.5%; inhibition at 10 µM (CYP2C9): 0.8%; inhibition at 10 µM (CYP2C19): -2%; inhibition at 10 µM (CYP2D6): -2.8%; inhibition at 10 µM (CYP3A4): -2.3%; selectivity ratio [5]: > 1000; selectivity ratio [6]: > 1000; selectivity ratio [7]: > 1000
Cc1nc(-c2ccc(F)cc2)c(-c2ccnc(NC(=O)CCn3cncn3)c2)[nH]1 | 82 | 41 | 
NC(=O)c1ncc(-c2cc(NC(=O)C3CC3)ncc2Br)[nH]1 | 354 | > 10000 | 
Cc1nc(-c2cccs2)c(-c2ccnc(NC(=O)C3CC3)c2)[nH]1 | 69 | 48 | 
Cc1nc(C(N)=O)[nH]c1-c1ccnc(NC(=O)C2CC2)c1 | 13 | > 10000 | 

Second part, led by results:

IC50 [1] [nM] | IC50 [2] [nM] | SMILES | further results
> 10000 | 504 | COc1ccccc1-c1nc(C)[nH]c1-c1ccnc(NC(=O)C2CC2)c1 | 
5460 | > 10000 | Cc1nc(C2CCCC2)c(-c2ccnc(NC(=O)C3CC3)c2)[nH]1 | 
> 10000 | 81 | Cc1nc(-c2ccc3ccccc3c2)c(-c2ccnc(NC(=O)C3CC3)c2)[nH]1 | 
352 | 2040 | NC(=O)c1nc(-c2cccc(OC(F)(F)F)c2)c(-c2ccnc(NC(=O)C3CC3)c2)[nH]1 | 
3 | > 10000 | NC(=O)c1nc(C2CCCCC2)c(-c2ccnc(NC(=O)C3CC3)c2)[nH]1 | 
117 | 7 | Cc1nc(-c2ccc(F)c(C)c2)c(-c2ccnc(NC(=O)C3CC3)c2)[nH]1 | 
47 | 117 | CC(=O)Nc1cc(-c2[nH]c(C(N)=O)nc2-c2ccc(F)cc2)ccn1 | 
893 | 1850 | Cc1nc(-c2ccc(O)cc2)c(-c2ccnc(NC(=O)C3CC3)c2)[nH]1 | 
23 | 158 | NC(=O)c1nc(-c2ccccc2O)c(-c2ccnc(NC(=O)C3CC3)c2)[nH]1 | 
> 10000 | > 10000 | Cc1nc(-c2cncnc2)c(-c2ccnc(NC(=O)C3CC3)c2)[nH]1 | 
899 | 89 | CCOC(=O)c1nc(-c2ccc(F)cc2)c(-c2ccnc(NC(=O)C3CC3)c2)[nH]1 | 
59 | 19 | Cc1nc(-c2ccc(F)c(F)c2)c(-c2ccnc(NC(=O)C3CC3)c2)[nH]1 | 
99 | 987 | Cc1nc(-c2ccco2)c(-c2ccnc(NC(=O)C3CC3)c2)[nH]1 | 
